Test results published in patent publication EP0634173B1, “24-epi-1-alpha-hydroxyvitamin D2 for treating osteoporosis” (WISCONSIN ALUMNI RESEARCH FOUNDATION, priority 1993, dated 1995).
Like-named read-outs stand apart in the source and are kept apart here. Marks after values point to notes of the source that are not given here.

Experiments:
vitamin D-deficient rat [1] = conditions: cited from earlier work; for Bone Mobilization Serum Ca: 20 h prior to sacrifice, vitamin D-free, low calcium diet; for activity in mobilizing calcium from bone: result in words, animals on a low calcium diet
[2] = tested on: rats made osteoporotic by ovariectomy; assay: Restoration of bone mass (femur ash) in oophorectomized rats; format: in vivo, rat; conditions: for Total Femur Ash (mg ± SEM) / Ash (% ± SEM): oophorectomized rats, 325 pmol/day for 20 days by Alzet osmotic minipump; for Ash (% ± SEM): femur; for restoration of bone mass: result in words, previously tested, compared with the compound of the present study
Excerpt: At 13 weeks, the animals were either sham-operated or oophorectomized. They continued on the same diet for an additional 16 weeks. Ouring the last 20 days, the animals received the indicated dose of either 1α-hydroxyvitamin D2 or 24-epi-1α-hydroxyvitamin D2, in propylene glycol, delivered each day by Alzet osmotic minipump for a period of 20 days. The animals were killed and their femurs were used to determine total bone ash and percent ash. There were 6 animals in each group and the data are expressed as average ± standard error of the mean. Oophorectomy results in a lack of estrogen reminiscent of the menopausal state.

vitamin D-deficient rat [3] = conditions: cited from earlier work; for Ca Transport S/M Ratio: 20 h prior to sacrifice, vitamin D-free, low calcium diet
[4] = tested on: human leukemia cells (HL-60 cells); conditions: 4-day trial period, cited from earlier work
[5] = tested on: human leukemia cells (HL-60 cells); assay: HL-60 cell differentiation, text summary over both NBT-reduction and phagocytosis assays; format: cell-based; conditions: HL-60 cell differentiation activity
Experimental: The assays were conducted as described by Ostrem et al (J. Biol. Chem. 262, 14164-14171, 1987), and by DeLuca et al (U. S. Patent 4,717,721). […] Even at doses as low as 10^-8M, this compound produced approximately 64-67% differentiation in the 4-day trial period in both the NBT-reduction and the phagocytosis assay. […] Thus, 1α-hydroxy-24-epi-vitamin D2 has little or no activity in promoting differentiation of promyelocytes to monocytes.

[6] = tested on: human leukemia cells (HL-60 cells); conditions: cited from earlier work
[7] = tested on: human leukemia cells (HL-60 cells); conditions: 4-day trial period, cited from earlier work; remark: listed apart in the source

SMILES | Bone Mobilization Serum Ca (vitamin D-deficient rat [1]; 325 pmol) | activity in mobilizing calcium from bone (vitamin D-deficient rat [1]) | Total Femur Ash (mg ± SEM) [2] | Ash (% ± SEM) [2] | Ca Transport S/M Ratio (vitamin D-deficient rat [3]; 325 pmol) | % Differentiation NBT Reduction ([4]; 1 x 10^-7 M) | % Differentiation NBT Reduction ([4]; 1 x 10^-8 M) | % Differentiation NBT Reduction ([4]; 2 x 10^-8 M) | % Differentiation NBT Reduction ([4]; 5 x 10^-8 M) | differentiation ([6]; 1-2 x 10^-8M) | differentiation ([6]; 10^-7M) | % Differentiation Phagocytosis ([7]; 1 x 10^-7 M) | % Differentiation Phagocytosis ([7]; 1 x 10^-8 M) | % Differentiation Phagocytosis ([7]; 2 x 10^-8 M) | % Differentiation Phagocytosis ([7]; 5 x 10^-8 M) | restoration of bone mass [2] | further results
C=C1/C(=C\C=C2/CCC[C@]3(C)[C@@H]([C@H](C)/C=C/[C@H](C)C(C)C)CC[C@@H]23)C[C@@H](O)C[C@@H]1O [1α-Hydroxy-vitamin D2, 1α-hydroxyvitamin D2] | 5.3 ± 0.15^a mg % | strongly active | 377 mg | 58.6 ± 0.55% | 5.4 ± 0.37^a |  |  |  |  |  |  |  |  |  |  |  | Total Femur Ash (mg ± SEM) ([2]; listed as 1α-OH-D2): 377 ± 15.2^c mg
C=C1/C(=C\C=C2/CCC[C@]3(C)[C@@H]([C@H](C)/C=C/[C@@H](C)C(C)(C)O)CC[C@@H]23)C[C@@H](O)C[C@@H]1O [1α,25-Dihydroxy-24-epi-vitamin D2, 1α,25-dihydroxy-24-epi-vitamin D2] |  |  |  |  |  | 80 ± 3% | 39 ± 3% | 48 ± 3% | 64 ± 3% | 40-50% | 80% | 81 ± 3% | 40 ± 3% | 49 ± 2% | 62 ± 3% |  | times less active than the 1α,25-dihydroxyvitamin D3 standard [5]: about 5; differentiation ([6]; 5 x 10^-8M): > 60%
C=C1/C(=C\C=C2/CCC[C@]3(C)[C@@H]([C@H](C)CCCC(C)(C)O)CC[C@@H]23)C[C@@H](O)C[C@@H]1O [1α,25-Dihydroxy-vitamin D3, 1α,25-dihydroxyvitamin D3] |  |  |  |  |  | 87 ± 2% | 64 ± 2% |  |  |  |  | 89 ± 3% | 67 ± 3% |  |  | restored some bone mass | differentiation ([6]; 10^-8M, 4-day trial period, both NBT-reduction and phagocytosis assay): 64-67%
C=C1/C(=C\C=C2/CCC[C@]3(C)[C@@H]([C@H](C)CCCC(C)C)CC[C@@H]23)C[C@@H](O)C[C@@H]1O [1α-hydroxyvitamin D3] |  |  |  |  |  |  |  |  |  |  |  |  |  |  |  | restored some bone mass | 
C=C1/C(=C\C=C2/CCC[C@]3(C)[C@@H]([C@H](C)/C=C/[C@@H](C)C(C)C)CC[C@@H]23)C[C@@H](O)C[C@@H]1O [1α-Hydroxy-24-epi-vitamin D2, 24-epi-1α-hydroxyvitamin D2] | 3.9 ± 0.39^b mg % | no activity | 400 mg | 60.5 ± 0.5% | 4.3 ± 0.42^a | 22 ± 2% | 4 ± 2% | 6 ± 2% | 14 ± 2% | does not elicit a significant differentiation response | 16-20% | 16 ± 2% | 4 ± 2% | 6 ± 3% | 9 ± 1% |  | Bone Mobilization Serum Ca (vitamin D-deficient rat [1]; 650 pmol): 4.1 ± 0.23^b mg %; Total Femur Ash (mg ± SEM) ([2]; listed as 24-epi-1α-OH-D2): 400 ± 16.4^d mg; Ca Transport S/M Ratio (vitamin D-deficient rat [3]; 650 pmol): 4.4 ± 0.70^a; activity in stimulating intestinal calcium transport (vitamin D-deficient rat [3]; result in words, data of Table 1): high activity
